The target in one data set is AVPR1A (Homo sapiens, UniProt P37288). The data set can be described thus: Calcium Flux AVPR1A Agonist. Format: cell-based. The settings on record: for EC50: read-out: RC50, result type EC50; for Emax: read-out: Max response. Here is the method: (≤0.2% DMSO concentration). Assays were performed in 1× dye loading buffer consisting of 1× Dye (DiscoverX, Calcium No Wash^PLUS kit, Catalog No. 90-0091), 1× Additive A and 2.5 mM Probenecid in HBSS/20 mM HEPES. Probenecid was prepared fresh. Prior to testing, media was aspirated from cells and replaced with 25 μL dye loading buffer. Cells were incubated for 45 min at 37° C. and then 20 min at RT. For agonist determination, 25 μL of 2× compound in HBSS/20 mM HEPES was added using a FLIPR Tetra (MDS). […] 25 μL of 2× sample was added and cells were incubated for 30 min at RT in the dark to equilibrate plate temperature. After incubation, antagonist determination was initiated by addition of 25 μL of 1× compound with 3×EC80 agonist using FLIPR. For both agonist and antagonist formats, activity was measure on a FLIPR Tetra (MDS). Calcium mobilization was monitored for 2 min with a 5 sec baseline read.
FLIPR read—Area under the curve, was calculated for the entire 2 min read.
A general note: A change in cytosolic calcium serves as a functional read-out for many receptors and channels.

A further data set deals with ADRB1 (Homo sapiens, UniProt P08588). The data set can be described thus: cAMP ADRB1 Antagonist. Format: cell-based. The settings on record: for Emax: read-out: Max response. The procedure: cAMP Hunter cell lines were expanded from freezer stocks. […] For Gi agonist determination, cells were incubated with sample in the presence of EC80 forskolin to induce response. For both conditions, media was aspirated from cells and replaced with 15 μL 2:1 HBSS/10 mM HEPES:cAMP XS+ Ab reagent. […] 5 μL of 4× sample was added to cells and incubated at 37° C. or room temperature (RT) for 30 or 60 min. Final assay vehicle concentration was 1%. […] Media was aspirated from cells and replaced with 10 μL 1:1 HBSS/HEPES:cAMP XS+ Ab reagent. […] For Gi coupled GPCRs, EC80 forskolin was included. […] Compound activity was analyzed using CBIS data analysis suite (ChemInnovation, CA).

A further data set concerns the target HTR2B (Homo sapiens, UniProt P41595). The data set can be described thus: Calcium Flux HTR2B Agonist. The settings on record: for Emax: read-out: Max response.
In another data set the target is HTR1B (Homo sapiens, UniProt P28222). In words: cAMP HTR1B Antagonist. The settings on record: for Emax: read-out: Max response.
The next data set addresses hERG (Homo sapiens, UniProt Q12809). In words: Ion Channel hERG Blocker. It is filed as cell-based. The settings on record: for Emax at 30 min: human, read-out: Max response; for IC50: read-out: RC50, result type IC50. A general note: The hERG channel carries a current that helps repolarise heart muscle cells.
The target of the next data set is T1, SERT (Homo sapiens, UniProt P31645).
T1 construct: Eurofins DiscoverX Corporation 87-1003DR; host or cells: unnamed cell lines
In words: Transporter SERT Blocker. It is filed as cell-based. The settings on record: for Emax: Transporter SERT Blocker, read-out: Max response. Here is the method: After cell plating and incubation, media was removed an 25 μL of 1× compound in 1×HBSS/0.1% BSA was added. Compounds were incubated with cells for 30 min at 37° C. After compound incubation, 25 μL of 1× dye loading buffer (1× dye, 1×HBSS/20 mM HEPES) was added to the wells. Cells were incubated for 30-60 min at 37° C. After incubation, microplates were transferred to a PerkinElmer Envision™ instrument for fluorescent signal detection. […] For blocker mode assays, percentage of inhibition was calculated using the following formula: […]

Another data set addresses KvLQT1/minK (Homo sapiens, UniProt P51787). The data set can be described thus: Ion Channel KvLQT1/minK Blocker. The settings on record: for Emax: read-out: Max response. It is filed as cell-based.
A further data set deals with T2, LCK (Homo sapiens, UniProt P06239).
T2 construct: purchased Eurofins DiscoverX Corporation 87-1003DR; host or cells: E. coli BL21-derived host (T7 phage) or HEK-293
In words: Binding (KINOMEscan) LCK Inhibitor. The settings on record: for IC50: read-out: RC50, result type IC50; for Emax: read-out: Max response. Here is the method: For most assays, kinase-tagged T7 phage strains were grown in parallel in 24-well blocks in an E. coli host derived from the BL21 strain. E. coli were grown to log-phase and infected with T7 phage from a frozen stock (multiplicity of infection=0.4) and incubated with shaking at 32° C. until lysis (90-150 min). The lysates were centrifuged (6,000×g) and filtered (0.2 μm) to remove cell debris. The remaining kinases were produced in HEK-293 cells and subsequently tagged with DNA for qPCR detection. Streptavidin-coated magnetic beads were treated with biotinylated small molecule ligands for 30 min at RT to generate affinity resins for kinase assays. The liganded beads were blocked with excess biotin and washed with blocking buffer (SeaBlock (Pierce), 1% BSA, 0.05% Tween 20, 1 mM DTT) to remove unbound ligand and to reduce non-specific phage binding. […] All reactions were performed in polypropylene 384-well plates in a final volume of 0.02 mL. […] The beads were then re-suspended in elution buffer (1×PBS, 0.05% Tween 20, 0.5 μM non-biotinylated affinity ligand) and incubated at RT with shaking for 30 min. The kinase concentration in the eluates was measured by qPCR.
The kinase concentration in the eluates was measured by qPCR. qPCR reactions were assembled by adding 2.5 μL of kinase eluate to 7.5 μL of qPCR master mix containing 0.15 μM amplicon primers and 0.15 μM amplicon probe. The qPCR protocol consisted of a 10 min hot start at 95° C., followed by 35 cycles of 95° C. for 15 sec, 60° C. for 1 min.
Binding constants (Kds) were calculated with a standard dose-response curve using the Hill equation: […]

The next data set addresses GABAA (Homo sapiens, UniProt P14867+P18507+P47870). The data set can be described thus: Ion Channel GABAA Opener. Format: cell-based. The settings on record: read-out: Max response.

Like-named read-outs stand apart in the source and are kept apart here.

T1 sequence (P31645 whole entry): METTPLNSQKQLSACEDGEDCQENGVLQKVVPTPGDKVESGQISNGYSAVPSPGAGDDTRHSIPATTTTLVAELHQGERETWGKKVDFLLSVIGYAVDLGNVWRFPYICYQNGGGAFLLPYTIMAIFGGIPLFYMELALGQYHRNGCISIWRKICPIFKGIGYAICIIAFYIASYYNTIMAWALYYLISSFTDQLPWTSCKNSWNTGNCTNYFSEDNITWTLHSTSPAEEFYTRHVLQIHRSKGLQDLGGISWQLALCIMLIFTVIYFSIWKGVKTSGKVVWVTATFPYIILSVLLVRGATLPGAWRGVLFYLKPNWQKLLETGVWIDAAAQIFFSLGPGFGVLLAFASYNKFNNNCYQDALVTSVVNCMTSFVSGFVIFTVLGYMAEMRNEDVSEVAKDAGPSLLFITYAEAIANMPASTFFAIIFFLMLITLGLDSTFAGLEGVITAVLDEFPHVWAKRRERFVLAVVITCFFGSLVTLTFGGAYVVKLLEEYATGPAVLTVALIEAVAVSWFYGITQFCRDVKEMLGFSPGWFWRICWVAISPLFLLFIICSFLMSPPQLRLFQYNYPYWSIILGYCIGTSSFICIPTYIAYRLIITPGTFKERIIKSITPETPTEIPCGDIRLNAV
HTR2B, sequence (P41595 whole entry): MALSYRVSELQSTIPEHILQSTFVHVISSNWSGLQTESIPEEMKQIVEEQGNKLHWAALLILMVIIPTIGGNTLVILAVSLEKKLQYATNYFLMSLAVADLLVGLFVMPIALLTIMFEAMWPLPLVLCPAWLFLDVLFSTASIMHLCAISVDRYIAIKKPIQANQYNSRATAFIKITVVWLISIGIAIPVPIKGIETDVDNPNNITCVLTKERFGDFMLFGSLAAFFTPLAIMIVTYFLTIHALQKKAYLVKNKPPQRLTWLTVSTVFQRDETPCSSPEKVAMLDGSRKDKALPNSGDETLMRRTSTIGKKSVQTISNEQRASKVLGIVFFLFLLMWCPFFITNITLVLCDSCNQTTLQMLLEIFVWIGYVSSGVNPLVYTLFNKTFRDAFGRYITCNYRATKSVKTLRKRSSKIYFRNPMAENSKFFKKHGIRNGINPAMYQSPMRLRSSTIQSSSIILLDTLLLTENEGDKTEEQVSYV
AVPR1A, sequence (P37288 whole entry): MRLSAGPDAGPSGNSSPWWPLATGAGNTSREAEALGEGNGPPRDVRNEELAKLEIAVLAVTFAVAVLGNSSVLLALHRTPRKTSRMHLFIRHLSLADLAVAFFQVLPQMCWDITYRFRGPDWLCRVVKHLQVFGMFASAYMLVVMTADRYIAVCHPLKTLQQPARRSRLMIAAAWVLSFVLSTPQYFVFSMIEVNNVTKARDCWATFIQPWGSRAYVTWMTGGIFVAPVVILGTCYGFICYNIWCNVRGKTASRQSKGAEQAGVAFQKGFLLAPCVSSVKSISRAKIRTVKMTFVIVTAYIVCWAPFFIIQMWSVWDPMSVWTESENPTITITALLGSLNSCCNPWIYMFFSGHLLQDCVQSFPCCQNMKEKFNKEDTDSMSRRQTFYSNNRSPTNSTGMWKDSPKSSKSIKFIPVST
hERG, sequence (Q12809 whole entry): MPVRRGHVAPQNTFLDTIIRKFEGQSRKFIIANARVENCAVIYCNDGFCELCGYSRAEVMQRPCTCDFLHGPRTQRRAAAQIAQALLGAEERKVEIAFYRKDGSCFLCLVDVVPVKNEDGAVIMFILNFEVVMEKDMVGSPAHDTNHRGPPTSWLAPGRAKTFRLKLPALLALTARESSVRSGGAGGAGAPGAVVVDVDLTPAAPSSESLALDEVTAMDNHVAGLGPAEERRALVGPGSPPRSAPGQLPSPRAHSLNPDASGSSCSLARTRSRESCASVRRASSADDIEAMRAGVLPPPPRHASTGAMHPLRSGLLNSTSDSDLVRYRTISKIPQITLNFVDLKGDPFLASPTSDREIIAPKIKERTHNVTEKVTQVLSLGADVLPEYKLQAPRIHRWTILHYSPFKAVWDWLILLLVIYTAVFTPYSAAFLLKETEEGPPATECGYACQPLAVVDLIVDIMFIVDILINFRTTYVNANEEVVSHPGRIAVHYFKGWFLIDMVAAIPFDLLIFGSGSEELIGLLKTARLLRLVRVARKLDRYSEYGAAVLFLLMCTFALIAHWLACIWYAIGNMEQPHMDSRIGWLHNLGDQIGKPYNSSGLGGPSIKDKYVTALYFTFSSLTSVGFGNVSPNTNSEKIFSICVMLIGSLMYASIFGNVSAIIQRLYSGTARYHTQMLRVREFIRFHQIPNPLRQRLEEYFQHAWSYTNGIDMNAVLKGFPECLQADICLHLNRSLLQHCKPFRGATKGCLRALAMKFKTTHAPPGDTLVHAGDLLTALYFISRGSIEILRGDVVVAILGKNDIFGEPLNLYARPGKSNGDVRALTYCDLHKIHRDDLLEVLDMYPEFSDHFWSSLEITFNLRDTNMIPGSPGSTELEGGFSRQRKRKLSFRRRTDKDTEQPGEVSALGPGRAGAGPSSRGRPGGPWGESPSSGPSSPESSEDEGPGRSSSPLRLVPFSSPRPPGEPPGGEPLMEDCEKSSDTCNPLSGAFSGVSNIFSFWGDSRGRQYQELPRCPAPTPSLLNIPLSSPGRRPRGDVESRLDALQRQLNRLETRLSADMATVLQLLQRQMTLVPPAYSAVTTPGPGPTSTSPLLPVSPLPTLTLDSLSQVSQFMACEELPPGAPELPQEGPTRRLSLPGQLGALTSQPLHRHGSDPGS
ADRB1, sequence (P08588 whole entry): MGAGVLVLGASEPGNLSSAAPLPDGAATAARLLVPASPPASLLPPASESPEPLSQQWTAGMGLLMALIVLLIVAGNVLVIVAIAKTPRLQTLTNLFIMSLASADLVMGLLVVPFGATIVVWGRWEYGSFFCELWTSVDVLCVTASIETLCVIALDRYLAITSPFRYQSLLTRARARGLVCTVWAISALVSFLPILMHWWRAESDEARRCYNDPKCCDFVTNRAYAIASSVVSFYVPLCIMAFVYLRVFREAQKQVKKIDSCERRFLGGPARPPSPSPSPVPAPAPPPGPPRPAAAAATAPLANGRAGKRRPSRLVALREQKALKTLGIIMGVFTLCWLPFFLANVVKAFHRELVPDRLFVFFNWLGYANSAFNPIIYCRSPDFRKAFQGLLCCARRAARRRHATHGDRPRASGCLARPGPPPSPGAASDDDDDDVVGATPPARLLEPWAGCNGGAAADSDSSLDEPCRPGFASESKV
T2 sequence (P06239 whole entry): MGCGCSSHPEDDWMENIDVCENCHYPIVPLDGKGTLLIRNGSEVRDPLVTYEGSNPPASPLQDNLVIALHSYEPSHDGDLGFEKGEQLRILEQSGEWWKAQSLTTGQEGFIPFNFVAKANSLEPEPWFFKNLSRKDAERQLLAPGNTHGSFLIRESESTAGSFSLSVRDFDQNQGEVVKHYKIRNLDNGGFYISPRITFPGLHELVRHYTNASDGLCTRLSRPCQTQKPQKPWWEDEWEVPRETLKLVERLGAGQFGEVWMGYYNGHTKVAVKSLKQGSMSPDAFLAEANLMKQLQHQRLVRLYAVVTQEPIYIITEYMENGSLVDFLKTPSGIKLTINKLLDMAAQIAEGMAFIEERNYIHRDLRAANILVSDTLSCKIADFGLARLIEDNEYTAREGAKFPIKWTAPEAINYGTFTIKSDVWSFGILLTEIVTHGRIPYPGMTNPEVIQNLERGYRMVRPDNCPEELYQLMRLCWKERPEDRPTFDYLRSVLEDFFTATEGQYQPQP
HTR1B, sequence (P28222 whole entry): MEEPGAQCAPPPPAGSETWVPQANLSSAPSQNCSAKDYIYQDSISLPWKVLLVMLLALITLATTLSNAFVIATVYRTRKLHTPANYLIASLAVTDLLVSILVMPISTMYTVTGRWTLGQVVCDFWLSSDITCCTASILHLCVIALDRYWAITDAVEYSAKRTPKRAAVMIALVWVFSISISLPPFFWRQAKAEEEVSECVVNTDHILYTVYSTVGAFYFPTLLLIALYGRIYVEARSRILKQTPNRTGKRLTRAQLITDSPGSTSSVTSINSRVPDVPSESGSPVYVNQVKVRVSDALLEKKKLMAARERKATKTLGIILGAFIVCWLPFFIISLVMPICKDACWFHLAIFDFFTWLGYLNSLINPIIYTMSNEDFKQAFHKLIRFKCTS
Experimental for HTR1B: In vitro pharmacological profiling of compounds was done against 78 functional assays for 47 common off-targets (30) by Eurofins DiscoverX Corporation (Fremont, CA, USA) using their SAFETYscan E/IC50 ELECT service (Cat Ref 87-1003DR, Safety47 Panel Dose Response). […] Compounds were tested in a range of 10 concentrations, following a 3-fold serial dilution, starting from 10 μM.
cAMP Hunter cell lines were expanded from freezer stocks. Prior to testing, cells were seeded in a total volume of 20 μL into white walled 384-well microplates and incubated at 37° C. cAMP modulation was determined using the DiscoverX HitHunter cAMP XS+ assay. For Gs agonist determination, cells were incubated with sample to induce response. For Gi agonist determination, cells were incubated with sample in the presence of EC80 forskolin to induce response. For both conditions, media was aspirated from cells and replaced with 15 μL 2:1 HBSS/10 mM HEPES:cAMP XS+ Ab reagent. Intermediate dilution of sample stocks was performed to generate 4× sample in assay buffer (containing 4×EC80 forskolin in the case of antagonist determination). 5 μL of 4× sample was added to cells and incubated at 37° C. or room temperature (RT) for 30 or 60 min. Final assay vehicle concentration was 1%. For antagonist determination, cells were pre-incubated with sample followed by agonist challenge at the EC80 concentration. Media was aspirated from cells and replaced with 10 μL 1:1 HBSS/HEPES:cAMP XS+ Ab reagent. 5 μL of 4× compound was added to the cells and incubated at 37° C. or RT for 30 min. 5 μL of 4×EC80 agonist was added to the cells and incubated at 37° C. or RT for 30 or 60 min. For Gi coupled GPCRs, EC80 forskolin was included. […] Microplates were read following signal generation with a PerkinElmer Envision™ instrument for chemiluminescent signal detection. Compound activity was analyzed using CBIS data analysis suite (ChemInnovation, CA).
Experimental for HTR2B: In vitro pharmacological profiling of compounds was done against 78 functional assays for 47 common off-targets (30) by Eurofins DiscoverX Corporation (Fremont, CA, USA) using their SAFETYscan E/IC50 ELECT service (Cat Ref 87-1003DR, Safety47 Panel Dose Response). […] Compounds were tested in a range of 10 concentrations, following a 3-fold serial dilution, starting from 10 μM. The assays were performed utilizing the PathHunter enzyme fragment complementation (EFC) technology, FLIPR®-based cellular screening assays, and KINOMEscan kinase binding assays.
Prior to testing, cells (10,000 cells/well) were expanded from freezer stocks and seeded into a total volume of 50 μL into black walled, clear-bottom, Poly-D-lysine coated 384-well microplates and incubated at 37° C. […] Assays were performed in 1× dye loading buffer consisting of 1× Dye (DiscoverX, Calcium No Wash^PLUS kit, Catalog No. 90-0091), 1× Additive A and 2.5 mM Probenecid in HBSS/20 mM HEPES. Probenecid was prepared fresh. Prior to testing, media was aspirated from cells and replaced with 25 μL dye loading buffer. Cells were incubated for 45 min at 37° C. and then 20 min at RT. For agonist determination, 25 μL of 2× compound in HBSS/20 mM HEPES was added using a FLIPR Tetra (MDS). For antagonist determination, cells were pre-incubated with sample followed by agonist challenge at the EC80 concentration. 25 μL of 2× sample was added and cells were incubated for 30 min at RT in the dark to equilibrate plate temperature. After incubation, antagonist determination was initiated by addition of 25 μL of 1× compound with 3×EC80 agonist using FLIPR. For both agonist and antagonist formats, activity was measure on a FLIPR Tetra (MDS). Calcium mobilization was monitored for 2 min with a 5 sec baseline read.
FLIPR read—Area under the curve, was calculated for the entire 2 min read. Compound activity was analysed using CBIS data analysis suite (ChemInnovation, CA).

By EC50 is commonly meant the concentration giving half of the maximal effect. The IC50 is the concentration that inhibits the measured activity by half. `CC(C)(C)c1ccc(C#CC(O)c2ccccc2)cc1` (racemic) [Compound 3.3, rac-3-(4-(tert-butyl)phenyl)-1-phenylprop-2-yn-1-ol]: the EC50 at AVPR1A (Calcium Flux AVPR1A Agonist) and at HTR2B was more than 10 µM each time. Moreover, the Emax came to 8.7% on AVPR1A; 2.2% at ADRB1; 0% at HTR2B; 66.2% on HTR1B; 0% at SERT; 47.5% on KvLQT1/minK. The Emax at LCK and at GABAA was 0% each time. The concentration for half-maximal inhibition (IC50) at ADRB1 was more than 10 µM; at HTR1B, 6.4 µM; on hERG, more than 10 µM; on SERT, more than 10 µM; at KvLQT1/minK, more than 10 µM; on LCK (Binding LCK Inhibitor) it was more than 10 µM. The Emax at 30 min on hERG was 3.8%.
On to `Clc1cccc(C#Cc2n[nH]c3ncccc23)c1` [Compound 10.1, 3-((3-chlorophenyl)ethynyl)-1H-pyrazolo[3,4-b]pyridine], for which the Emax on AVPR1A (Calcium Flux AVPR1A Agonist) stood at 7.9%; at ADRB1 (cAMP ADRB1 Antagonist), 40.3%; on HTR2B, 0%; at HTR1B, 0%; on SERT, 0%; on KvLQT1/minK (Ion Channel KvLQT1/minK Blocker) it was 0%. For the same compound, the values for the Emax on LCK (Binding LCK Inhibitor) and at GABAA were 0% and 1.3%, respectively. In addition, the concentration giving a half-maximal response (EC50) on AVPR1A (Calcium Flux AVPR1A Agonist) and at HTR2B was more than 10 µM each time. Besides, the concentration for half-maximal inhibition (IC50) is more than 10 µM at ADRB1 (cAMP ADRB1 Antagonist, read-out: RC50, result type IC50); more than 10 µM on HTR1B; more than 10 µM on hERG; more than 10 µM at SERT; more than 10 µM on KvLQT1/minK (Ion Channel KvLQT1/minK Blocker, read-out: RC50, result type IC50); more than 10 µM on LCK (Binding LCK Inhibitor). Further, the Emax at 30 min on hERG amounted to 6.6%.

These data come from US20250186408A1, “TREATMENT OF PHARMACORESISTANT EPILEPSY” (Katholieke Universiteit Leuven, priority 2021, published 2025).
